From the supplement of paper PMC6045584
± gives the standard deviation of the averaged measurements.

What was measured:
[1] = compound: CCN(CC)CCCCNc1ncc2cc(-c3cc(OC)cc(OC)c3)c(NC(=O)NC(C)(C)C)nc2n1; experiment: surviving fraction relative to DMSO-only wells; higher = less growth inhibition; conditions: exposure time: 5 days
Procedure, shortened: (§1)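 Each tumour cell line was screened three times, and only lines with replicate Pearson r >0.7 and median Z' >0.3 were kept. Cells in log phase were seeded at 250–500 per well in 384-well plates, left 24 hours, then exposed continuously for five days to inhibitors at 0.5, 1, 5, 10, 50, 100, 500 and 1000 nM. Viability was read as CellTiter-Glo luminescence, with surviving fraction normalised to the median of DMSO-only wells.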

NUTLIN3 = compound: COc1ccc(C2=N[C@@H](c3ccc(Cl)cc3)[C@@H](c3ccc(Cl)cc3)N2C(=O)N2CCNC(=O)C2)c(OC(C)C)c1 [NUTLIN3]; experiment: as above; conditions: exposure time: 5 days
Procedure, shortened: as §1

| Test System | surviving fraction ([1]; 0.5 nM) | surviving fraction ([1]; 1 nM) | surviving fraction ([1]; 5 nM) | surviving fraction ([1]; 10 nM) | surviving fraction ([1]; 50 nM) | surviving fraction ([1]; 100 nM) | surviving fraction ([1]; 500 nM) | surviving fraction ([1]; 1000 nM) | surviving fraction (NUTLIN3; 0.5 nM) | surviving fraction (NUTLIN3; 1 nM) | surviving fraction (NUTLIN3; 5 nM) | surviving fraction (NUTLIN3; 10 nM) | surviving fraction (NUTLIN3; 50 nM) | surviving fraction (NUTLIN3; 100 nM) | surviving fraction (NUTLIN3; 500 nM) | surviving fraction (NUTLIN3; 1000 nM) |
| --- | --- | --- | --- | --- | --- | --- | --- | --- | --- | --- | --- | --- | --- | --- | --- | --- |
| G292 BONE | 0.836 ± 0.27 | 0.97 ± 0.048 | 0.958 ± 0.027 | 0.918 ± 0.042 | 0.495 ± 0.17 | 0.387 ± 0.008 | 0.181 ± 0.012 | 0.18 ± 0.0066 | 0.982 ± 0.028 | 0.955 ± 0.03 | 1.06 ± 0.047 | 1.05 ± 0.032 | 1.03 ± 0.044 | 0.989 ± 0.026 | 1.01 ± 0.045 | 0.979 ± 0.054 |
| HCC38 BREAST | 1.15 ± 0.23 | 0.97 ± 0.19 | 1.15 ± 0.17 | 1.12 ± 0.19 | 0.979 ± 0.37 | 1.04 ± 0.18 | 0.824 ± 0.17 | 0.846 ± 0.2 | 1.19 ± 0.29 | 1.23 ± 0.12 | 1.35 ± 0.062 | 1.29 ± 0.12 | 1.28 ± 0.14 | 1.28 ± 0.11 | 1.22 ± 0.22 | 1.26 ± 0.25 |
| HCC70 BREAST | 0.977 ± 0.084 | 1 ± 0.017 | 0.957 ± 0.12 | 1.07 ± 0.041 | 1.05 ± 0.06 | 1.08 ± 0.037 | 0.962 ± 0.055 | 1 ± 0.09 | 1.03 ± 0.094 | 1.03 ± 0.043 | 1.02 ± 0.063 | 1.05 ± 0.087 | 1.07 ± 0.085 | 1.14 ± 0.055 | 1.04 ± 0.073 | 1.07 ± 0.084 |
| HMLE3 BREAST | 0.929 ± 0.061 | 0.934 ± 0.049 | 0.895 ± 0.05 | 0.995 ± 0.056 | 0.764 ± 0.049 | 0.683 ± 0.052 | 0.428 ± 0.0075 | 0.41 ± 0.023 | 0.967 ± 0.059 | 0.985 ± 0.041 | 1.02 ± 0.028 | 0.996 ± 0.085 | 0.982 ± 0.046 | 0.995 ± 0.043 | 0.964 ± 0.025 | 1.02 ± 0.024 |
| HMT3552 BREAST | 1.15 | 0.971 | 0.993 | 1.05 | 0.89 | 0.98 | 0.827 | 0.803 | 0.97 | 0.984 | 1 | 1 | 1.19 | 1.21 | 1.12 | 1.14 |
| HS57T BREAST | 0.932 ± 0.022 | 0.899 ± 0.03 | 0.977 ± 0.067 | 0.952 ± 0.015 | 0.67 ± 0.03 | 0.693 ± 0.078 | 0.577 ± 0.021 | 0.579 ± 0.089 | 0.965 ± 0.045 | 0.991 ± 0.018 | 1.01 ± 0.045 | 1.04 ± 0.046 | 1.01 ± 0.023 | 1.12 ± 0.033 | 1.06 ± 0.027 | 1.04 ± 0.071 |
| HS578T BREAST | 0.97 ± 0.1 | 1.03 ± 0.19 | 0.973 ± 0.098 | 1.02 ± 0.02 | 0.836 ± 0.021 | 0.801 ± 0.056 | 0.886 ± 0.096 | 0.738 ± 0.095 | 1.11 ± 0.067 | 0.926 ± 0.069 | 0.883 ± 0.19 | 0.8973 ± 0.0049 | 0.92 ± 0.041 | 0.936 ± 0.072 | 0.913 ± 0.14 | 0.921 ± 0.06 |
